Test results from US20100087476A1, “PHARMACEUTICAL COMPOUNDS” (Biovail Laboratories International (Barbados) S.R.L., priority 2008, published 2010).

Columns and labels:
Type in all cases: in vivo, BALB/c mice
OVA-sensitised mice [1] = test: Unrestrained whole body plethysmography (PenH) during methacholine exposure, chicken ovalbumin parenteral sensitization model of asthma
Source text: (§1) An animal model of asthma was used in this study that included parenteral sensitisation of mice with chicken ovalbumin (OVA) together with a suitable adjuvant (Alum). Ovalbumin is widely used as an antigen as a result of its availability and ability to induce a good Th2-type immune response due to lack of any previous exposure to this antigen. Repeated aerosol exposure to ovalbumin post-sensitisation triggers airway changes leading to hyper-responsiveness, similar to that seen in asthma. These changes can be measured following challenge with a bronchoconstricting agent such as methacholine and analysed using whole body plethysmography. Pulmonary plethysmography is used to measure the functional residual capacity (FRC) of the lungs—the volume in the lungs when the muscles of respiration are relaxed—and total lung capacity. The degree of bronchochonstriction (BHR) can be expressed as enhanced pause (Pen H), a calculated value which correlates with measurement of airway resistance, impedance and intrapleural pressure in the same mouse.
Pen H is calculated from the relationship Pen H=(Te/Tr−1)×(Pef/Pif) where;
(§2) Groups of 8 BALB/c mice aged between 5 and 8 weeks of age were sensitised by i.p. (intraperitoneal) injection with ovalalbumin (OVA) in alum on days 0 and 14 (except Group A). All animals were challenged by aerosol exposure to 5% OVA for 20 minutes daily from days 18 to 23. Treatments were given by oral gavage twice daily from day 14 to day 24. At termination (day 24), all animals were subjected to unrestrained whole body plethysmography (whole-body plethysmograph Buxco Electronics, Troy, US) during exposure to increasing doses of methacholine leading to bronchoconstriction and hyper-responsiveness. These changes can be measured using the Buxco software to determine the PenH values for each animal. BAL fluids were collected and cytospins prepared and counted differentially for the presence of infiltrating cells. The supernatant from the BAL was retained and stored at ^−80° C. for possible cytokine analysis. […]

OVA-sensitised mice [2] = test: Differential cell counts in bronchial lavage fluid (BAL), chicken ovalbumin parenteral sensitization model of asthma
Source text: as §1
In addition, allergy can by analysed by examination of changes in the lung and lung fluid. This can be achieved by histopathological analysis of lung tissue and analysis of the cellular infiltrate in bronchial lavage fluid (BAL). Further, additional markers of allergy such as the presence of cytokines associated with allergy, IL-4 and IL-13 can be analysed in the BAL fluid.
as §2
Mice were terminated by i.p. injection of euthatal, the trachea exposed and cells obtained from the lungs by performing bronchoalveolar lavage, 3×0.4 ml with PBS. The lavage was pooled, cells counted using a nucleocounter, pelletted and resuspended at 5×10^5 cells per ml. […]
A minimum of 5 areas were counted on each slide. Each cell type was counted and percentage cell numbers determined From this the number of cells/BAL was determined.

OVA-sensitised mice [3] = test: Lung histopathology scores (pulmonary inflammation), chicken ovalbumin parenteral sensitization model of asthma; conditions: 1 to 20 mg/kg twice daily oral gavage; probable dose-effect
Procedure: Groups of 8 BALB/c mice aged between 5 and 8 weeks of age were sensitised by i.p. (intraperitoneal) injection with ovalalbumin (OVA) in alum on days 0 and 14 (except Group A). All animals were challenged by aerosol exposure to 5% OVA for 20 minutes daily from days 18 to 23. Treatments were given by oral gavage twice daily from day 14 to day 24. At termination (day 24), all animals were subjected to unrestrained whole body plethysmography (whole-body plethysmograph Buxco Electronics, Troy, US) during exposure to increasing doses of methacholine leading to bronchoconstriction and hyper-responsiveness. These changes can be measured using the Buxco software to determine the PenH values for each animal. BAL fluids were collected and cytospins prepared and counted differentially for the presence of infiltrating cells. The supernatant from the BAL was retained and stored at ^−80° C. for possible cytokine analysis. Further, lungs were removed and placed in 10% buffered formalin for possible histopathology. […] The HE-stained sections were assessed for lung inflammation. Each lung was scored as described below. Samples were scored in blinded fashion, without knowledge of the experimental protocol or identity of groups. A semi-quantitative grading system was used to describe the degree of inflammatory change in the lungs. Descriptive comments (nature of cellular infiltration) were also recorded. […]

[4] = across 1, 10 and 20 mg/kg twice daily oral gavage, day 14-24
[5] = highest dose, 20 mg/kg twice daily oral gavage (Group E)
[6] = two lower doses (1 and 10 mg/kg twice daily oral gavage, Groups C and D)

`COc1cc2c(cc1OC)[C@H]1C[C@H](O)[C@@H](CC(C)C)CN1CC2` (single isomer, unassigned) [Isomer B] was tested, and the “PenH response to methacholine” value (OVA-sensitised mice [1]; [4]) was “dose dependent effect”, the “airway hyper-responsiveness (PenH)” value (OVA-sensitised mice [1]; [5]) was “reduced airway hyper-responsiveness to levels just above those of the budesonide controls” and the “PenH response to methacholine” value (OVA-sensitised mice [1]; [6]) was “no clear difference between treated and untreated animals”. For the same compound, the “levels of eosinophil infiltration into the lung” value (OVA-sensitised mice [2]; [4]) was “dose dependent effect”, the “effect on lung cell infiltration” value (OVA-sensitised mice [2]; [5]) was “small” and the “eosinophil numbers in the BAL” value (OVA-sensitised mice [2]; [5]) was “associated reduction in eosinophil numbers in the BAL”. The “levels of eosinophil infiltration into the lung” value (OVA-sensitised mice [2]; [6]) was “no clear difference between treated and untreated animals” and the “lung pathology (mean group histopathological score)” value (OVA-sensitised mice [3]) was “significant amelioration of pathology”.
